From patent US10016365B2, “Compositions and methods of tumor treatment utilizing nanoparticles” (priority 2015, dated 2018)
Read-outs that look alike come from different tables or passages of the source.

Legend:
[1] = test system: CT-26-luc cells; test: Antitumor activity in colon cancer syngeneic mice model (CT-26-luc i.p., BLI and survival); assay type: in vivo, BALB/c mice
Procedure: Tumor cell growth was determined by measuring bioluminescence images (BLI) using IVIS system. Treatments were initiated when the tumor dissemination (judged by luminescence activity) reached baseline. […] Survival of these animals was recorded.
Five-week-old female BALB/c mice were purchased from the National Laboratory Animal Breeding and Research Center of Taipei and maintained in the oncology animal facility of Taipei Veterans General Hospital, Taipei, Taiwan. The animals were used in compliance with the institutional animal health care regulations, and all of the animal experimental procedures were approved by the Institutional Animal Care and Use Committee.
Exact dosing volume was calculated using body weight. Control group was given 100 ul of 0.9% Sodium Chloride Injection.
BALB/c mice (6 weeks) were injected with 1×10^5 CT-26-luc cells in 250 ul opti-MEM by i.p. on Day 0 (D0). After 4 days (D4), tumor cell growth was determined by measuring luminescence activity using IVIS system (baseline). Each group Bioluminescence images (BLI) was normalized by average BLI of total mice before treatment. […] Animals were monitored individually till death for survival evaluation.
The mice were imaged with the IVIS-50 system (Xenogen, Alameda, Calif.).
Overall survival was defined as the time from the date of tumor implantation to the date of death and is presented as the Kaplan-Meier survival curve.

[2] = test system: cancer stem cells of ES-2 tumors; test: Cancer stem cell analysis of treated tumors (tumor sphere, side population, RT-PCR); assay type: in vivo, SCID mice
Procedure: (8A) Tumor sphere-forming ability of treated tumor. Mouse was implanted with ES-2 cells (2×10^6/mouse) at day 1 and was treated at day 5, day 8, and day 11 at indicated dosage. Tumors were retrieved at day 14 for each indicated group. Tumors were dissociated into single cell suspension and cultured in an ultralow dish for 10 days. […] Representative figures are shown. (8B) Summary of tumor sphere formation (mean±SD). (8C) Flow cytometry analysis of Hoechst 33342-stained cells and identification of side population cells. Percentage of side population cells are shown. (D-G) RT-PCR analysis for the expressions of stemness marker (8D), genes for epithelial-mesenchymal transition (EMT) driver and expression of epithelial or mesenchymal phenotype (8E), genes for tumor angiogenesis (8F), and genes for multidrug resistance (8G). (8H) CXCR4/CXCL12 axis in stem cells maintenance. […] Experiments were repeated in triplicate.

[3] = test system: recurrent ovarian tumor; conditions: HIPEC, 10 mg/kg
Procedure: Depicted are inflow and outflow ports and anal temperature probe to monitor internal temperature of mouse during perfusion. Mice were perfused for 1 h at the rate of 3 mL/min with Taxol® (10 mg/kg). […] Experiments were repeated in triplicate.

[4] = test system: human ovarian cancer cell line ES-2; test: Flow cytometry apoptosis assay of tumor after treatment; assay type: in vivo, SCID mice; conditions: systematic delivery
Description: A single intraperitoneal injection of human ovarian cancer cell line ES-2 (2×10^5 cells per mouse, ATCC no. CRL-1978) at d0 into 5-week-old SCID mice (CB.17 scid/scid) was commenced to generate tumor, which was confirmed via abdominal distension and malignant ascites in 3 weeks. […] Animals were used in compliance with institutional animal health care regulations, and all animal experimental procedures were approved by the Institutional Animal Care and Use Committee. Tumor-bearing mice were euthanized at the endpoint when there were signs of distress, including fur ruffling, rapid respiratory rate, hunched posture, reduced activity, and progressive ascites formation. Groups of mice were treated. A 2-factor factorial design was implemented with factor 1 (systematic delivery versus regional delivery) and factor 2 (free drug versus nanomedicine). […] The dosing schedule for each paired drugs (free drug and nanomedicine) was given on maximal tolerated dose based on preliminary study.

[5] = test system: lung metastases; test: Lung metastases model (tail vein injection of tumor cells); assay type: in vivo, SCID mice
Procedure: (7B) Control of lung metastases. Mouse was induced lung metastases by tail vein injection of tumor cells at d1.
Animals were used in compliance with institutional animal health care regulations, and all animal experimental procedures were approved by the Institutional Animal Care and Use Committee. […] Groups of mice were treated. A 2-factor factorial design was implemented with factor 1 (systematic delivery versus regional delivery) and factor 2 (free drug versus nanomedicine). […] The dosing schedule for each paired drugs (free drug and nanomedicine) was given on maximal tolerated dose based on preliminary study. Lung metastases were induced by tail-vein injection, while liver metastases were by splenic injection, and retroperitoneal lymphatic metastases were induced by intra-uterine injection of tumor cells.

[6] = test system: metastatic non-small lung cancer; conditions: P=0.271; cited from earlier work
[7] = test system: human ovarian cancer cell line ES-2; assay type: in vivo; conditions: regional delivery
Description: (§1) Experiments were repeated in triplicate.
as §1, §1, §1, §1

[8] = human, in vivo, ip; cited from earlier work
[9] = hepatic artery infusion; cited from earlier work

Compound: CC(=O)O[C@H]1C(=O)[C@@]2(C)[C@H]([C@H](OC(=O)c3ccccc3)[C@]3(O)C[C@H](OC(=O)[C@H](O)[C@@H](NC(=O)c4ccccc4)c4ccccc4)C(C)=C1C3(C)C)[C@]1(OC(C)=O)CO[C@@H]1C[C@@H]2O [Taxol®, paclitaxel]
- inhibition of colon tumor growth / antitumor activity ([1]; 10 mg/kg i.p.): did not inhibit colon tumor growth
- median survival day ([1]; 10 mg/kg i.p.): 26 days
- survival duration ([1]; 10 mg/kg i.p.): 27 days
- inhibition of colon tumor growth ([1]; 10 mg/kg i.v.): did not inhibit colon tumor growth
- median survival day ([1]; 10 mg/kg i.v.): 24 days
- survival duration ([1]; 10 mg/kg i.v.): 27 days
- CXCR4/CXCL12 expression compared to control group ([2]; i.v. delivery): increased expression of CXCR4/CXCL12
- side population cells (Hoechst 33342) ([2]; regional delivery): increased
- tumor sphere (microsphere) formation of treated tumor ([2]; systematic (i.v.) delivery, tumors retrieved day 14, cultured 10 days): increased microsphere formation
- side population cells (Hoechst 33342) ([2]; systematic delivery): increased
- complications (bowel obstruction or perforation) [3]: higher
- tumor control of recurrent tumor ([3]; perfused 1 h at 3 mL/min): good tumor control
- apoptosis of tumor [4]: 23.3%
- control of lung metastases ([5]; regional (intrapleural) delivery): some therapeutic efficacy
- control of lung metastases ([5]; systematic delivery): unsatisfactory control of tumor
- median overall survival [6]: 11.2 months
- therapeutic efficacy (bioluminescence imaging day 14 vs day 4) ([7]; 10 mg/kg/mouse, day 5, 8, 11 (FIG. 2B)): some efficacy
- therapeutic efficacy (bioluminescence imaging day 14 vs day 4) ([7]; 10 mg/kg/mouse, day 5, 8, 11 (FIG. 6)): some efficacy

Compound: N.N.[Cl][Pt][Cl] [cisplatin]
- increased exposure to the peritoneal cavity as compared to the systemic compartment [8]: 20 fold
- therapeutic efficacy (bioluminescence imaging day 14 vs day 4) ([7]; 5 mg/kg/mouse, day 5 and 10 (FIG. 3B)): some therapeutic effect

Compound: COc1cccc2c1C(=O)c1c(O)c3c(c(O)c1C2=O)C[C@@](O)(C(=O)CO)C[C@@H]3O[C@H]1C[C@H](N)[C@H](O)[C@H](C)O1 [doxorubicin]
- therapeutic efficacy (bioluminescence imaging day 14 vs day 4) ([7]; 5 mg/kg/mouse, day 5 and 10 (FIG. 5)): some therapeutic effect

Compound: O=c1[nH]c(=O)n([C@H]2C[C@H](O)[C@@H](CO)O2)cc1F [floxuridine]
- higher tumor drug levels as compared to portal vein infusion [9]: 15 fold

Compound: CC[C@@]1(O)C(=O)OCc2c1cc1n(c2=O)Cc2cc3c(CN(C)C)c(O)ccc3nc2-1 [topotecan]
- therapeutic efficacy (bioluminescence imaging day 14 vs day 4) ([7]; 10 mg/kg/mouse, day 5 and 10 (FIG. 4B)): some therapeutic effect
